From publication PMC2849157 (Bioorganic & medicinal chemistry letters, 2010)

Assays:
HIV = experiment: anti-HIV activity, cellular assay; assay type: cell-based, human immunodeficiency virus 1 (HIV); details: for antiviral activity: in words; for EC50: Human immunodeficiency virus 1, MT2, read-out: EC50, anti-HIV activity
MT-2 = experiment: cytotoxicity; assay type: cell-based, human; details: MT-2 cellular assay
HCV = experiment: anti-HCV activity; assay type: cell-based; details: Hepatitis C virus, read-out: EC50, anti-HCV activity
[1] = test system: herpes simplex virus-1 (HSV-1); experiment: effect on replication of HSV-1; assay type: cell-based
HSV-2 = experiment: effect on replication of HSV-2; assay type: cell-based
hepatitis B virus (HBV) = experiment: effect on replication of HBV; assay type: cell-based

CCCCOc1c2cc(C(=O)Nc3cc(C(=O)O)cc(C(=O)OCc4ccccc4)c3)cc1Cc1cc(C(=O)Nc3cc(C(=O)O)cc(C(=O)OCc4ccccc4)c3)cc(c1OCCCC)Cc1cc(C(=O)Nc3cc(C(=O)O)cc(C(=O)OCc4ccccc4)c3)cc(c1OCCCC)Cc1cc(C(=O)Nc3cc(C(=O)O)cc(C(=O)OCc4ccccc4)c3)cc(c1OCCCC)C2 [Compound 1]
antiviral activity (HIV): little to no antiviral activity

CCCCOc1c2cc(C(=O)Nc3cc(C(=O)O)cc(C(=O)NC4CCCCC4)c3)cc1Cc1cc(C(=O)Nc3cc(C(=O)O)cc(C(=O)NC4CCCCC4)c3)cc(c1OCCCC)Cc1cc(C(=O)Nc3cc(C(=O)O)cc(C(=O)NC4CCCCC4)c3)cc(c1OCCCC)Cc1cc(C(=O)Nc3cc(C(=O)O)cc(C(=O)NC4CCCCC4)c3)cc(c1OCCCC)C2 [Compound 3]
antiviral activity (HIV): little to no antiviral activity

O=C(O)c1cc(NC(=O)c2cc3c(OCc4ccccc4)c(c2)Cc2cc(C(=O)Nc4cc(C(=O)O)cc(C(=O)O)c4)cc(c2OCc2ccccc2)Cc2cc(C(=O)Nc4cc(C(=O)O)cc(C(=O)O)c4)cc(c2OCc2ccccc2)Cc2cc(C(=O)Nc4cc(C(=O)O)cc(C(=O)O)c4)cc(c2OCc2ccccc2)C3)cc(C(=O)O)c1 [Compound 11]
EC50 (HIV): 300 nM | ID50 (toxicity) (MT-2): 18000 nM | EC50 (HCV): 1400 nM

CCCCOc1c2cc(C(=O)Nc3cc(C(=O)O)cc(C(=O)O)c3)cc1Cc1cc(C(=O)Nc3cc(C(=O)O)cc(C(=O)O)c3)cc(c1OCCCC)Cc1cc(C(=O)Nc3cc(C(=O)O)cc(C(=O)O)c3)cc(c1OCCCC)Cc1cc(C(=O)Nc3cc(C(=O)O)cc(C(=O)O)c3)cc(c1OCCCC)C2 [Compound 2]
potency against different laboratory HIV strains (HIV; HIV-IIIB, NL-43, LaiM184V): equally potent | EC50 (HIV): 300 nM | antiviral activity in different cell lines (HIV; MT-2, CEMx174, TZM-bl): antiviral activity was retained in all these cell lines | EC50 (HCV): 1800 nM | effect on the replication of HSV-1 [1]: no effect | effect on the replication of HSV-2 (HSV-2): no effect | effect on the replication of HBV (hepatitis B virus (HBV)): no effect

O=C(O)c1cc(NC(=O)c2cc3c(O)c(c2)Cc2cc(C(=O)Nc4cc(C(=O)O)cc(C(=O)O)c4)cc(c2O)Cc2cc(C(=O)Nc4cc(C(=O)O)cc(C(=O)O)c4)cc(c2O)Cc2cc(C(=O)Nc4cc(C(=O)O)cc(C(=O)O)c4)cc(c2O)C3)cc(C(=O)O)c1 [Compound 9]
EC50 (HIV): 6700 nM | EC50 (HCV): > 50000 nM

CCCCOc1c2cc(C(=O)NCCN)cc1Cc1cc(C(=O)NCCN)cc(c1OCCCC)Cc1cc(C(=O)NCCN)cc(c1OCCCC)Cc1cc(C(=O)NCCN)cc(c1OCCCC)C2 [Compound 7]
antiviral activity (HIV): lack of antiviral activity
